Experiments:
Format in all cases: in vivo, mouse
Lmna^H222P/H222P mice = assay: Survival of Lmna H222P/H222P mice on NR diet
Experimental: (§1) Mice were bred in an accredited animal facility (accreditation number: C-75-13-08). All experiments on mice were approved by the Comité d'éthique en expérimentation animate Charles Darwin No 5. Mice Lmna^H222P/H222P were backcrossed 8 times to 129S2/SvPasOrlRj strain mice to obtain pure genetic background. Male mice used for the studies were maintained under a 12 h light/12 h dark cycle at constant temperature (23° C.) with free access to food and water. Nicotinamide riboside (NR) complementation: Animals at 17 weeks of age were fed for 9 weeks with either a chow diet (A04: Scientific Animal Food & Engineering) or a chow diet complemented with 0.25% of NR (kindly provided by ChromaDex, Inc. California) corresponding to a dose of 400 mg/kg/day for a mouse weighing 25 g eating 4 g of food per day. Nicotinamide (NAM) treatment: Animals at 17 weeks of age were injected intraperitoneally (IP) every two days (q.a.d.) for 9 weeks with either physiologic serum or physiologic serum added with NAM at 50 mg/ml corresponding to a dose of 500 mg/kg for a mouse weighing 25 g.
For survival analysis, Lmna^H222P/H222P mice were fed chow supplemented with 0.25% nicotinamide riboside when they were 17 weeks of age and continued until they suffered from significant distress or died. p≤0.001

Lmna^WT/WT mice = assay: Echocardiography in NR-diet wild type mice; details: whatever the diet and the course of the treatment
Experimental: as §1, with “Nicotinamide (NAM) treatment: Animals at 17 weeks of age were injected intraperitoneally (IP) every two days (q.a.d.) for 9 weeks with either physiologic serum or physiologic serum added with NAM at 50 mg/ml corresponding to a dose of 500 mg/kg for a mouse weighing 25 g.” left out
Mouse transthoracic echocardiography was performed using an ACUSON 128XP/10 ultrasound with a 11 Mhz linear probe (Mountain View).MHz transducer applied to the chest wall. […] The intra ventricular septum (IVS), LV posterior wall (LVPW), LV diameter (LVD) in diastole and systole, the percentage of fractional shortening (FS) and the heart rate (HR) were measured from the mean of at least three separate cardiac cycles. […]

SRF^HKO mice = assay: Myocardial NAD+ levels in SRF HKO mice (NAD recycling assay)
From the text: Transgenic mice. All experiments with animals conformed to the Directive 2010/63/EU of the European Parliament and were approved by the ethics committee Charles Darvin #5 (agreement 00369.01). SRF^HKO mice bear the tamoxifen-inducible α-MHC-MerCrMer transgene and the Siffloxed allele (Sf/Sf) as described previously (Parlakian et al. (2005). Temporally controlled onset of dilated cardiomyopathy through disruption of the SRF gene in adult heart. Journal 112, 2930-2939; Tritsch et al. (2013). An SRF/miR-1 axis regulates NCX1 and Annexin A5 protein levels in the normal and failing heart. Journal 98, 372-380). Transgenic mice have been bred for more than 20 generations in C57BL/6N background. The mice were housed in standard animal facility (CEF. Hôpital Pitié Salpétrière, agreement A-75-13-15, 75013 Paris), under a 12-h dark/light cycle. Tamoxifen (Sigma T5648) was administrated by i.p. injection at a dose of 0.7 mg diluted in 100 μl peanut oil at day (D) 0, D1 and D2. […]
Tissue frozen powder was resuspended in 75% ethanol, 25% HEPES 10 mM pH 7.1, buffer (20 μl/mg of tissue). […] After adjustment of dilution factors, NADH levels were calculated by substracting the NAD^+ concentration to the non-heated ethanolic extract values: NADH=NADt (non heated)−NAD^+ (heated).
For both types of extracts (buffered ethanol or HClO4) we added 100 μL of reaction buffer (600 mM ethanol, 0.5 mM 3-(4.5-dimethylthiazol-2-yl)-2.5-diphenyltetrazolium bromide (MTT), 2 mM phenazine ethosulfate (PES), 120 mM Bicine (pH 7.8), yeast alcohol dehydrogenase (SIGMA A3263>300 u/mg.) 0.05 mg/ml. Kinetics of the reaction (OD at 550 nm, every 30 seconds for 40 minutes) was followed on a TECAN Infinite F500 microplate reader. NAD was quantified in duplicates for each sample by comparison to a range of standard NAD^+ concentration using linear regression curve equation method between NAD^+ standard concentrations and the slope of the reaction in OD units/sec. […] Cell extracts were quantified for protein concentration determined by Bradford assay.

NC(=O)c1ccc[n+]([C@@H]2O[C@H](CO)[C@@H](O)[C@H]2O)c1 [NR, nicotinamide riboside]
mice that died over the course of the treatment protocol (Lmna^H222P/H222P mice; NR diet 400 mg/kg/day, 9 weeks from 17 weeks of age, 38% of chow-diet mice died): none
age at which mice started to die (Lmna^H222P/H222P mice; pilot survival study, NR feeding from 17 weeks of age, chow-diet 30 weeks): 38 weeks
mean of survival (Lmna^H222P/H222P mice; pilot survival study, NR feeding from 17 weeks of age, chow-diet 33 weeks): 39 weeks
cardiac structure and function by echocardiography (Lmna^WT/WT mice): No difference
myocardial NAD (SRF^HKO mice; NR-enriched food (0.22%) from D5 to D50): protected against the drop in NAD
myocardial NAD+ levels (SRF^HKO mice; NR-supplemented diet for 2 weeks from D5 to D20): rescued
myocardial NAD+ levels (SRF^HKO mice; i.p. daily 1 μmole/g body weight from D8 to D15 after SRF inactivation): preserved

— patent US20190350955A1, “METHODS AND PHARMACEUTICAL COMPOSITIONS FOR THE TREATMENT OF CARDIOMYOPATHIES” (INSERM (Institut National de la Sante et de la Recherche …, priority 2016, published 2019)
